# Measured values: US20260176265A1 (Cancer Research Technology Limited, priority 2022, published 2026)
# Columns and labels:
# [1] = target: CtermHisTag-mEGFR Triple Mutant - C797S, L858R, T790M (Homo sapiens, UniProt P00533, C797S/L858R/T790M); assay: TR-FRET probe displacement assay, EGFR triple mutant; assay type: binding; details: T790M 1.25 nM, probe 100 nM, 30 mins room temperature
# Method: (§1) Compounds (dissolved to 100 mM in DMSO) were dispensed into black low volume 384 well assay plates (Corning) over a final concentration range of 100000, 30000, 10000, 3000, 1000, 300, 100, 30, 10, and 3 nM using an Echo 550 (Labcyte). Positive control compound and DMSO as a negative control were dispensed into the first and last well, respectively. […]. Plates were read using a PheraStar FS (BMG Labtech) at Ex337 nm Ex490/520 nm. The data were analysed using Graphpad Prism/Dotmatics Studies Software. Assays conducted in technical replicate and repeated as a biological duplicate.
# [2] = target: CtermHisTag-mEGFR Wild type (Homo sapiens, UniProt P00533); assay: TR-FRET probe displacement assay, EGFR wild type; assay type: binding; details: EGFR wild type 1.25 nM, probe 100 nM, 30 mins room temperature
# Sequence of CtermHisTag-mEGFR Wild type (P00533 25-1210): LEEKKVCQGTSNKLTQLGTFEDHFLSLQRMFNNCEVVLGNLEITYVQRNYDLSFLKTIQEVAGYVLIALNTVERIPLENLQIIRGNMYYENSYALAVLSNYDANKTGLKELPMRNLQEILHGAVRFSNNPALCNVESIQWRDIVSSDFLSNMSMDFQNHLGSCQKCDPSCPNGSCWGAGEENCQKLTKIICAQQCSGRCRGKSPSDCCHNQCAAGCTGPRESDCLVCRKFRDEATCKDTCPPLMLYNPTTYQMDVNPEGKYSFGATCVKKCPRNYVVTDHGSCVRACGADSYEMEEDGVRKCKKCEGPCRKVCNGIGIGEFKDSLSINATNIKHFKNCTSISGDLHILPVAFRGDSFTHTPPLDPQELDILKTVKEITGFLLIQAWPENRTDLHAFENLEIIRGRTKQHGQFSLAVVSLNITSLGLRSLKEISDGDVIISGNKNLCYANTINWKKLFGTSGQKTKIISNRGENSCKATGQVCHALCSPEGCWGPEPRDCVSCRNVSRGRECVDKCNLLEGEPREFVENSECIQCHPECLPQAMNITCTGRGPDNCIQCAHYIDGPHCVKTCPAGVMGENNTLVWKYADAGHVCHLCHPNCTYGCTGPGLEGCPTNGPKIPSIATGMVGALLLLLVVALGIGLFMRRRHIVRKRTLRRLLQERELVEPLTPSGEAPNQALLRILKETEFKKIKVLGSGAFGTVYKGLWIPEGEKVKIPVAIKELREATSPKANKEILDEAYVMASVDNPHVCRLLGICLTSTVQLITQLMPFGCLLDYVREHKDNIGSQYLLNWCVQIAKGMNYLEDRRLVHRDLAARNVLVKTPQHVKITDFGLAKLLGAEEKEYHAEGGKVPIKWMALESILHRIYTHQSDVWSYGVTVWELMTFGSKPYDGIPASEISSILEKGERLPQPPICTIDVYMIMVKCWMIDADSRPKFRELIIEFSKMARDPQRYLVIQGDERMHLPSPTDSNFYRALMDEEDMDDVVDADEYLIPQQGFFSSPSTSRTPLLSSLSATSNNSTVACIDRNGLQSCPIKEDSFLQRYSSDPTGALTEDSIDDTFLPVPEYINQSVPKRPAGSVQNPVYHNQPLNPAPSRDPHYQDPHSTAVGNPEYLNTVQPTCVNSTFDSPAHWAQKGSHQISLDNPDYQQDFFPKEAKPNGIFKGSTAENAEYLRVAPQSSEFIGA
# Method: as §1
# [3] = target: T1, Phospho-EGFR (Tyr1068) in H1975 cells (Homo sapiens, UniProt P00533, L858R/T790M); assay: HTRF pEGFR/total EGFR assay in H1975 cells; assay type: cell-based; details: compound 3 hours, ratio pEGFR/total EGFR
# T1 construct: host or cells: H1975
# Method: H1975 cells (ATCC CRL-5908) were plated at 20,000 cells per well in 96 well plates and placed at 37° C. 5% CO2. Once adhered (after 24h) cells were treated with compounds dissolved in DMSO at a final concentration of 0.1% DMSO in media. Compounds were diluted in media then added to cells for 3 hours in duplicate. Compound and media were removed from the cells, then 50ul of HTRF lysis buffer is added (lysis buffer was diluted from 4× stock to 1× in DI water, with 1% blocking agent also added). Cells were lysed on a plate shaker (2000 rpm) for 30 minutes at room temperature. pEGFR expression was monitored using the Cisbio Phospho-EGFR (Tyri068) cellular kit (64EG1 PEH). Total EGFR expression was monitored using the Cisbio Total EGFR cellular kit (64NG1 PEH) as per manufacturer's instructions. Fluorescence emission was read at two different wavelengths (665 nm and 620 nm) on a PheraStar. Results were calculated as ratio of pEGFR/total EGFR and then percentage of 0 uM control.
# [4] = target: T2, Phospho-EGFR (Tyr1068) in H1975 C797S cells (Homo sapiens, UniProt P00533, C797S/L858R/T790M); assay: HTRF pEGFR/total EGFR assay in H1975 C797S cells; assay type: cell-based; details: H1975 C797S cells (CRISPR), compound 3 hours, ratio pEGFR/total EGFR
# T2 construct: endogenous in cells; host or cells: H1975 C797S (CRISPR-edited in house from ATCC CRL-5908)
# T2 sequence (P00533 25-1210 T790M/C797S/L858R): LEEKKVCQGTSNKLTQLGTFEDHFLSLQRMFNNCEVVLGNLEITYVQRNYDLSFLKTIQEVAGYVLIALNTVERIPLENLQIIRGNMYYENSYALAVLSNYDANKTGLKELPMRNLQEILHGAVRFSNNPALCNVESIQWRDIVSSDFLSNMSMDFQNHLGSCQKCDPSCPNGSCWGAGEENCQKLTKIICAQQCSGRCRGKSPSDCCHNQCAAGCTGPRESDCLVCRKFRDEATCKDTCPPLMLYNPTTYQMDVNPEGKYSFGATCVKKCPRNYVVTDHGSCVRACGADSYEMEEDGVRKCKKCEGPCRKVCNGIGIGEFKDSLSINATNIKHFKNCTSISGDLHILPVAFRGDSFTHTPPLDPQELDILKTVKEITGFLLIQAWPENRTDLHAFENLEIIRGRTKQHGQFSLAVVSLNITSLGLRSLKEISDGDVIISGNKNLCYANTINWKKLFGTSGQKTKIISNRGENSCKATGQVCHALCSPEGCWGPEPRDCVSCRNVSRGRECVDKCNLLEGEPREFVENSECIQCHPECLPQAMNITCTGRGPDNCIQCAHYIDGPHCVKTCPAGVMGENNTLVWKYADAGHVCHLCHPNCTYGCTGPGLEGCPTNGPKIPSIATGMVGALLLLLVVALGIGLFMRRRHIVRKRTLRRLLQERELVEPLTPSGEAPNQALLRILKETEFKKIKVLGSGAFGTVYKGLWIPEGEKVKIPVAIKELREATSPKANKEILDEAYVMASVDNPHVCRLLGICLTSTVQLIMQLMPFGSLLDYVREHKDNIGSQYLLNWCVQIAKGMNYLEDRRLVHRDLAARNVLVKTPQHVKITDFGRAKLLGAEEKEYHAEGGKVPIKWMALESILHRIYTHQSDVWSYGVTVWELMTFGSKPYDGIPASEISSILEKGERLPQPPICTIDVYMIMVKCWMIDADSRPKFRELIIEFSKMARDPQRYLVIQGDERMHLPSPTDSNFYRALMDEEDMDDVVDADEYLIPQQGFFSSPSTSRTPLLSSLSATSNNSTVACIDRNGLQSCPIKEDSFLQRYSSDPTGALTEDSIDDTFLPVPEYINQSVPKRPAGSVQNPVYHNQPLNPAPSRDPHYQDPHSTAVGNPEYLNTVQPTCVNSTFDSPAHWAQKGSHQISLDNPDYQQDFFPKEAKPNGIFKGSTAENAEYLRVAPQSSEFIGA
# Method: H1975 C797S cells (ATCC CRL-5908) were genetically engineered by CRISPR editing of EGFR C797S in house and validated by NGS. Cells were plated at 20,000 cells per well in 96 well plates and placed at 37° C. 5% CO2. Once adhered (after 24h) cells were treated with compounds dissolved in DMSO at a final concentration of 0.1% DMSO in media. Compounds were diluted in media then added to cells for 3 hours in duplicate. Compound and media were removed from the cells, then 50 ul of HTRF lysis buffer was added (lysis buffer was diluted from 4× stock to 1× in DI water, with 1% blocking agent also added). Cells were lysed on a plate shaker (2000 rpm) for 30 minutes at room temperature. pEGFR expression was monitored using the Cisbio Phospho-EGFR (Tyr1068) cellular kit (64EG1PEH). Total EGFR expression was monitored using the Cisbio Total EGFR cellular kit (64NG1PEH) as per manufacturer's instructions. Fluorescence emission was read at two different wavelengths (665 nm and 620 nm) on a PheraStar. Results were calculated as ratio of pEGFR/total EGFR and then percentage of 0 uM control.
# [5] = target: T3, Phospho-EGFR (Tyr1068) in A431 cells (Homo sapiens, UniProt P00533); assay: HTRF pEGFR/total EGFR assay in A431 cells (EGF stimulated); assay type: cell-based; details: compound 2.5 hours then 100 ng/ml EGF 30 mins, ratio pEGFR/total EGFR
# T3 construct: endogenous in cells; host or cells: A431
# T3 sequence (P00533 25-1210): as the sequence (P00533 25-1210) above
# Method: Cells were plated at 20,000 cells per well in 96 well plates and placed at 37° C. 5% CO2. Once adhered (after 24h) cells were treated with compounds dissolved in DMSO at a final concentration of 0.1% DMSO in media. Compounds were diluted in media then added to cells for 2.5 hours in duplicate, 100 ng/ml EGF (ThermoFisher, PHG0311 was is added to all compound treated cells as well as a control for 30 mins. Compound and media were removed from the cells, then 50ul of HTRF lysis bufferwas added (lysis bufferwas diluted from 4× stock to 1× in DI water, with 1% blocking agent also added). Cells were lysed on a plate shaker (2000 rpm) for 30 minutes at room temperature. pEGFR expression was monitored using the Cisbio Phospho-EGFR (Tyr1068) cellular kit (64EG1PEH). Total EGFR expression was monitored using the Cisbio Total EGFR cellular kit (64NG1PEH) as per manufacturer's instructions. Fluorescence emission was read at two different wavelengths (665 nm and 620 nm) on a PheraStar. Results were calculated as ratio of pEGFR/total EGFR and then percentage of OuM control.
# Sequence of CtermHisTag-mEGFR Triple Mutant - C797S, L858R, T790M (P00533 25-1210 T790M/C797S/L858R): as the sequence (P00533 25-1210 T790M/C797S/L858R) above
compound,measurement,setting,value
"C#Cc1cc(NC(=O)N(C)C)nc2nc(Nc3ccc(N4CCN(C)CC4)cc3)ncc12 [Example 37, 1-(5-ethynyl-2-{[4-(4-methylpiperazin-1-yl)phenyl]amino}pyrido[2,3-d]pyrimidin-7-yl)-3,3-dimethylurea]",IC50,[1],100 to 1000 nM
same,IC50,[2],> 10000 nM
same,IC50,[3],> 3000 nM
same,IC50,[4],> 3000 nM
same,IC50,[5],> 3000 nM
"C#Cc1cc(NC(=O)NC2CCCC2)nc2nc(Nc3ccc(N4CCN(C)CC4)cc3)ncc12 [Example 38, 1-cyclopentyl-3-(5-ethynyl-2-((4-(4-methylpiperazin-1-yl)phenyl)amino)pyrido[2,3-d]pyrimidin-7-yl)urea]",IC50,[1],< 20 nM
same,IC50,[2],< 1000 nM
same,IC50,[3],< 500 nM
same,IC50,[4],< 500 nM
same,IC50,[5],< 500 nM
"C#Cc1cc(NC(=O)NCc2ccccc2)nc2nc(Nc3ccc(N4CCN(C)CC4)cc3)ncc12 [Example 39, 1-benzyl-3-(5-ethynyl-2-{[4-(4-methylpiperazin-1-yl)phenyl]amino}pyrido[2,3-d]pyrimidin-7-yl)urea]",IC50,[1],< 20 nM
same,IC50,[2],< 1000 nM
same,IC50,[3],< 500 nM
same,IC50,[4],< 500 nM
same,IC50,[5],> 3000 nM
"C#Cc1cc(NC(=O)NCC2CCCC2)nc2nc(Nc3ccc(N4CCN(C)CC4)cc3)ncc12 [Example 40, 3-(cyclopentylmethyl)-1-(5-ethynyl-2-{[4-(4-methylpiperazin-1-yl)phenyl]amino}pyrido[2,3-d]pyrimidin-7-yl)urea]",IC50,[1],< 20 nM
same,IC50,[2],< 1000 nM
same,IC50,[3],< 500 nM
same,IC50,[4],< 500 nM
same,IC50,[5],> 3000 nM
"C#Cc1cc(NC(=O)NC2CCC2)nc2nc(Nc3ccc(N4CCN(C)CC4)cc3)ncc12 [Example 41, 3-cyclobutyl-1-(5-ethynyl-2-{[4-(4-methylpiperazin-1-yl)phenyl]amino}pyrido[2,3-d]pyrimidin-7-yl)urea]",IC50,[1],< 20 nM
same,IC50,[2],< 1000 nM
same,IC50,[3],< 500 nM
same,IC50,[4],< 500 nM
same,IC50,[5],1000 to 3000 nM
"C#Cc1cc(NC(=O)NC2CCOC2)nc2nc(Nc3ccc(N4CCN(C)CC4)cc3)ncc12 (stereo not shown) [Example 42, 1-(5-ethynyl-2-{[4-(4-methylpiperazin-1-yl)phenyl]amino}pyrido[2,3-d]pyrimidin-7-yl)-3-(oxolan-3-yl)urea]",IC50,[1],< 20 nM
same,IC50,[2],< 1000 nM
same,IC50,[3],< 500 nM
same,IC50,[4],< 500 nM
same,IC50,[5],> 3000 nM
"C#Cc1cc(NC(=O)NC2COC2)nc2nc(Nc3ccc(N4CCN(C)CC4)cc3)ncc12 [Example 43, 1-(5-ethynyl-2-{[4-(4-methylpiperazin-1-yl)phenyl]amino}pyrido[2,3-d]pyrimidin-7-yl)-3-(oxetan-3-ylI)urea]",IC50,[1],< 20 nM
same,IC50,[2],< 1000 nM
same,IC50,[3],< 500 nM
same,IC50,[4],< 500 nM
same,IC50,[5],> 3000 nM
"C#Cc1cc(NC(=O)NC2CC2)nc2nc(Nc3ccc(N4CCN(C)CC4)cc3)ncc12 [Example 44, 3-cyclopropyl-1-(5-ethynyl-2-{[4-(4-methylpiperazin-1-yl)phenyl]amino}pyrido[2,3-d]pyrimidin-7-yl)urea]",IC50,[1],< 20 nM
same,IC50,[2],< 1000 nM
same,IC50,[3],< 500 nM
same,IC50,[4],< 500 nM
same,IC50,[5],1000 to 3000 nM
"C#Cc1cc(NC(=O)NCc2cnco2)nc2nc(Nc3ccc(N4CCN(C)CC4)cc3)ncc12 [Example 45, 1-(5-ethynyl-2-{[4-(4-methylpiperazin-1-yl)phenyl]amino}pyrido[2,3-d]pyrimidin-7-yl)-3-(1,3-oxazol-5-ylmethyl)urea]",IC50,[1],20 to 100 nM
same,IC50,[2],< 1000 nM
same,IC50,[3],500 to 1000 nM
same,IC50,[4],1000 to 3000 nM
same,IC50,[5],> 3000 nM
"C#Cc1cc(NC(=O)NCc2cncn2C)nc2nc(Nc3ccc(N4CCN(C)CC4)cc3)ncc12 [Example 46, 1-(5-ethynyl-2-{[4-(4-methylpiperazin-1-yl)phenyl]amino}pyrido[2,3-d]pyrimidin-7-yl)-3-[(3-methylmidazol-4-yl)methyl]urea]",IC50,[1],< 20 nM
same,IC50,[2],< 1000 nM
same,IC50,[3],> 3000 nM
same,IC50,[4],> 3000 nM
same,IC50,[5],> 3000 nM
"C#Cc1cc(NC(=O)NCc2ccno2)nc2nc(Nc3ccc(N4CCN(C)CC4)cc3)ncc12 [Example 47, 1-(5-ethynyl-2-{[4-(4-methylpiperazin-1-yl)phenyl]amino}pyrido[2,3-d]pyrimidin-7-yl)-3-(1,2-oxazol-5-ylmethyl)urea]",IC50,[1],20 to 100 nM
same,IC50,[2],< 1000 nM
same,IC50,[3],500 to 1000 nM
same,IC50,[4],1000 to 3000 nM
same,IC50,[5],> 3000 nM
"C#Cc1cc(NC(=O)NCc2ccnn2C)nc2nc(Nc3ccc(N4CCN(C)CC4)cc3)ncc12 [Example 48, 1-(5-ethynyl-2-{[4-(4-methylpiperazin-1-yl)phenyl]amino}pyrido[2,3-d]pyrimidin-7-yl)-3-[(2-methylpyrazol-3-yl)methyl]urea]",IC50,[1],< 20 nM
same,IC50,[2],< 1000 nM
same,IC50,[3],< 500 nM
same,IC50,[4],< 500 nM
same,IC50,[5],> 3000 nM
"C#Cc1cc(NC(=O)NCc2ccccn2)nc2nc(Nc3ccc(N4CCN(C)CC4)cc3)ncc12 [Example 49, 3-(5-ethynyl-2-{[4-(4-methylpiperazin-1-yl)phenyl]amino}pyrido[2,3-d]pyrimidin-7-yl)-1-(pyridin-2-ylmethyl)urea]",IC50,[1],20 to 100 nM
same,IC50,[2],< 1000 nM
same,IC50,[3],500 to 1000 nM
same,IC50,[4],1000 to 3000 nM
same,IC50,[5],> 3000 nM
"C#Cc1cc(NC(=O)NCC2CCCO2)nc2nc(Nc3ccc(N4CCN(C)CC4)cc3)ncc12 (stereo not shown) [Example 50, 1-(5-ethynyl-2-{[4-(4-methylpiperazin-1-yl)phenyl]amino}pyrido[2,3-d]pyrimidin-7-yl)-3-(oxolan-2-ylmethyl)urea]",IC50,[1],20 to 100 nM
same,IC50,[2],< 1000 nM
same,IC50,[3],< 500 nM
same,IC50,[4],500 to 1000 nM
same,IC50,[5],> 3000 nM
"C#Cc1cc(NC(=O)NCC2CCOC2)nc2nc(Nc3ccc(N4CCN(C)CC4)cc3)ncc12 (stereo not shown) [Example 51, 1-(5-ethynyl-2-{[4-(4-methylpiperazin-1-yl)phenyl]amino}pyrido[2,3-d]pyrimidin-7-yl)-3-(oxolan-3-ylmethyl)urea]",IC50,[1],< 20 nM
same,IC50,[2],< 1000 nM
same,IC50,[3],< 500 nM
same,IC50,[4],< 500 nM
same,IC50,[5],> 3000 nM
C#Cc1cc(NC(=O)N[C@@H]2CCN(C(C)=O)C2)nc2nc(Nc3ccc(N4CCN(C)CC4)cc3)ncc12 [Example 52],IC50,[1],20 to 100 nM
same,IC50,[2],1000 to 10000 nM
same,IC50,[3],> 3000 nM
same,IC50,[4],> 3000 nM
same,IC50,[5],> 3000 nM
"C#Cc1cc(NC(=O)N[C@H]2CCN(C(C)=O)C2)nc2nc(Nc3ccc(N4CCN(C)CC4)cc3)ncc12 [Example 53, 3-[(3S)-1-acetylpyrrolidin-3-yl]-1-(5-ethynyl-2-{[4-(4-methylpiperazin-1-yl)phenyl]amino}pyrido[2,3-d]pyrimidin-7-yl)urea]",IC50,[1],< 20 nM
same,IC50,[2],< 1000 nM
same,IC50,[3],1000 to 3000 nM
same,IC50,[4],> 3000 nM
same,IC50,[5],> 3000 nM
